The test system of experiment [1] is neurons from hippocampi of E18 rat embryos. The experiment can be described thus: Neurite growth length (% NTL) in cultured E18 rat hippocampal neurons, 9-point dose response, 48 hours. The format is cell-based. The conditions noted are these: Rattus norvegicus, Neuron, 48 h; for activity at 0.078 µM: 78 nM; for activity at 0.156 µM: 156 nM; for activity at 0.312 µM: 312 nM; for activity at 0.625 µM: 625 nM. The protocol:
PRE-COATING CULTURE PLATES: On the day before the experiment, 96-well plates were pre-coated by plating 50 μl of Poly-D-lysine solution (PDL, 0.5 mg/mL) in each well. The next morning, the plates were washed four or five times with HBSS or PBS (150 μl/rinse), then left in buffer until cell plating
PREPARING THE CELLS: A timed pregnant rat carrying E18 embryos was euthanized using an IACUC approved method. In a laminar flow hood, the embryos were removed and placed in a petri dish containing Hank's Balanced Salt Solution (HBSS) with 20 mM HEPES, pH 7.3. Pup brains were dissected (see Meberg et al., 2003) and hippocampi were collected in 15 mL a conical tube containing Hibernate E with SM1 (2% v/v).
Dissociation media was prepared by combining 4.5 mL of Hibernate E (without SM1) with 0.5 mL of trypsin and 100 μl of DNAse solution. The medium over the hippocampi was carefully removed and replaced with dissociation solution, then incubated at 37° C. for 15-20 minutes, occasionally swirling the tube.
Using flame polished cotton plugged Pasteur pipettes, the dissociation media was removed, and then 5 mL of Hibernate E containing SM1 were added. The tube was swirled to thoroughly wash the tissue. The tissue was allowed to settle to the bottom of the tube, and the rinse solution was carefully removed. This step was repeated 5 times to dilute out trypsin and DNAse and remove any debris from lysed cells.
The final rinse media was removed from the tube and 1 pipette-full (1-2 mL) of Hibernate E with SM1 was added. Using the flame-polished Pasteur pipette (pre-wetted with rinse media), the tube was triturated until all cells had dissociated and no visible chunks of tissue remained. Fewer than ten triturations were typically performed. The volume was adjusted to 8-12 mL using Hibernate E containing SM1, the well was mixed and cell concentration was determined.
PLATING: The cells were diluted in culture media (NbActiv4 Cell-culture media) to a final concentration of 10,000 cells/mL. The HBSS was aspirated from PDL coated plates, and 150 μL of cell solution was loaded in the middle 48 wells at 1500 cells per well. Water was loaded in the outer wells to decrease evaporation from edge wells. Cells were allowed to adhere for 2 hours in tissue culture incubator prior to treatment.
TREATMENT: Compounds were diluted to various concentrations to provide 9 dose response concentrations of 20 μM, 10 μM, 5, μM, 2.5 μM, 1.25 μM, 0.625 μM, 0.3125 μM, 0.15625 μM, and 0.078125 μM. The plates were cultured for 48 hours, exposed to the compound at the various dose response concentrations.
FIXING THE CULTURES: The culture medium was removed from the plates and immediately replaced with 100-200 μl of warm (37° C.) 4% paraformaldehyde (PFA) solution in phosphate-buffered saline (PBS). The cells were fixed for 15-20 minutes at room temperature, and then rinsed with PBS (200 μl/well×3).
STAINING AND IMAGING: The PBS was removed and replaced with 100 μl of blocking/permeabilization buffer (PBS, 0.2% fish gelatin, 0.03% Triton X-100, 0.02% NaN3), then incubated overnight at 4° C. To this was added 100 μl of primary antibody solution (mouse anti-Beta III tubulin in blocking buffer) and incubate overnight at 4° C. The wells were rinsed with PBS (200 μl×3), which was then removed and replaced with 100 μl of secondary antibody solution (Goat anti-mouse Alexa 488, 10 μg/ml Hoechst 33342, 0.2% fish gelatin, 0.02% azide, in PBS). The plate was shaken gently on a rotating shaker for 2 hours, then rinsed with PBS (200 μl×5).
The plate was imaged using a Cellomics ArrayScan VTI in 2 different channels for nuclear staining (Hoechst) and cell body/neurite staining (βIII-tubulin). Typically, nine fields per well were imaged with a 5× objective and automatically traced by the Neuronal Profiling Bioapplication. To get reproducible results, at least 200-300 valid neurons were measured per condition. […]

Another experiment concerns Primary Neurons. The experiment in a line: HCS neurite outgrowth assay (High Content Screening with Primary Neurons). The experiment is classed as cell-based. The conditions noted are these: Primary neuron.

Broadly, the EC50 is the concentration giving half of the maximal effect. A low value points to higher potency in that assay.

Molecules are shown by their SMILES.

As to `COc1ccc(OC)c(C(=O)c2ccc(C(=O)Nc3ccncc3NC(=O)c3ccncc3)cc2)c1F` [Example A1, N-{4-[4-(2-fluoro-3,6-dimethoxybenzoyl)benzamido]pyridin-3-yl}pyridine-4-carboxamide], in experiment [1], the activity at 0.078 µM amounted to 89.9%, the activity at 0.156 µM amounted to 89%, the activity at 0.312 µM was 89.6% and the activity at 0.625 µM was determined as 91%. In experiment [1], the activity at 1.25 µM stood at 93.5%, the activity at 2.5 µM was 85.8%, the activity at 5 µM was 92.9% and the activity at 10 µM stood at 87%. Moreover, the activity at 20 µM in experiment [1] turned out to be 84.6%. The compound further had an EC50 in the experiment with Primary Neurons of 9.34 µM.

As to `COc1ccc(O)c(C(=O)c2ccc(C(=O)Nc3ccncc3NC(=O)c3ccncc3)cc2)c1F` [Example A2, N-{4-[4-(2-fluoro-6-hydroxy-3-methoxybenzoyl)benzamido]pyridin-3-yl}pyridine-4-carboxamide], in experiment [1], the activity at 0.078 µM was 93.8%, the activity at 0.156 µM came out at 96.2%, the activity at 0.312 µM is 84.6% and the activity at 0.625 µM was determined as 93%. In addition, in experiment [1], the activity at 1.25 µM came to 88.9%, the activity at 2.5 µM worked out at 91.1%, the activity at 5 µM came to 94.1% and the activity at 10 µM was 93.4%. For the same compound, the activity at 20 µM in experiment [1] turned out to be 100%. The compound further returned an EC50 in the experiment on Primary Neurons of 1.81 µM.

In the case of `O=C(Nc1ccncc1NC(=O)c1ccncc1)c1ccc(C(=O)c2ccccc2)cc1` [Example A3, N-[4-(4-benzoylbenzamido)pyridin-3-yl]pyridine-4-carboxamide], in experiment [1], the activity at 0.078 µM is 98.3%, the activity at 0.156 µM was found to be 99.9%, the activity at 0.312 µM turned out to be 96.3% and the activity at 0.625 µM turned out to be 92.6%. Also, in experiment [1], the activity at 1.25 µM stood at 96.7%, the activity at 2.5 µM turned out to be 95.1%, the activity at 5 µM was 93.6% and the activity at 10 µM was 92.9%. Also, the activity at 20 µM in experiment [1] was determined as 96.6%. The compound also came in with an EC50 with Primary Neurons of 0.798 µM.

With `COc1ccc(OC)c(C(=O)c2ccc(C(=O)Nc3ccccc3NC(=O)c3ccncc3)cc2)c1F` [Example A4, N-{2-[4-(2-fluoro-3,6-dimethoxybenzoyl)benzamido]phenyl}pyridine-4-carboxamide], in experiment [1], the activity at 0.078 µM stood at 102%, the activity at 0.156 µM was 99%, the activity at 0.312 µM stood at 110% and the activity at 0.625 µM is 93.2%. Also, in experiment [1], the activity at 1.25 µM is 105%, the activity at 2.5 µM came out at 114%, the activity at 5 µM was 114% and the activity at 10 µM came to 132%. Besides, in experiment [1], the activity at 20 µM turned out to be 161%. The compound further showed an EC50 with Primary Neurons of 9.64 µM.

On to `COc1ccc(O)c(C(=O)c2ccc(C(=O)Nc3ccccc3NC(=O)c3ccncc3)cc2)c1F` [Example A5, N-{2-[4-(2-fluoro-6-hydroxy-3-methoxybenzoyl)benzamido]phenyl}pyridine-4-carboxamide], for which, in experiment [1], the activity at 0.078 µM was 97.8%, the activity at 0.156 µM was found to be 102%, the activity at 0.312 µM is 97.2% and the activity at 0.625 µM was determined as 102%. Further, in experiment [1], the activity at 1.25 µM was 102%, the activity at 2.5 µM is 113%, the activity at 5 µM was determined as 116% and the activity at 10 µM stood at 124%. Moreover, the activity at 20 µM in experiment [1] came to 132%. The compound further yielded an EC50 with Primary Neurons of 10.4 µM.

For `O=C(Nc1ccccc1NC(=O)c1ccc(C(=O)c2ccccc2)cc1)c1ccncc1` [Example A6, N-[2-(4-benzoylbenzamido)phenyl]pyridine-4-carboxamide], in experiment [1], the activity at 0.078 µM is 94.7%, the activity at 0.156 µM came out at 106%, the activity at 0.312 µM came out at 83% and the activity at 0.625 µM came to 95.4%. In experiment [1], the activity at 1.25 µM was found to be 94.1%, the activity at 2.5 µM turned out to be 92.9%, the activity at 5 µM is 105% and the activity at 10 µM was 107%. Besides, the activity at 20 µM in experiment [1] is 121%. The compound also returned an EC50 with Primary Neurons of 1.67 µM.

Regarding `O=C(c1ccccc1)c1ccc(C(=O)N2CCN(C(=O)c3ccncc3)CC2)cc1` [Example A7, 1-(4-benzoylbenzoyl)-4-(pyridine-4-carbonyl)piperazine], in experiment [1], the activity at 0.078 µM worked out at 97%, the activity at 0.156 µM was 94.8%, the activity at 0.312 µM was 95.7% and the activity at 0.625 µM was determined as 91.2%. Also, in experiment [1], the activity at 1.25 µM was 90.8%, the activity at 2.5 µM amounted to 88.3%, the activity at 5 µM is 92% and the activity at 10 µM turned out to be 86.4%. Moreover, the activity at 20 µM in experiment [1] stood at 91.8%. Moreover, the response in the experiment with Primary Neurons was half-maximal at 1.67 µM (EC50).

In the case of `COc1ccc(OC)c(C(=O)c2ccc(C(=O)N3CCN(C(=O)c4ccncc4)CC3)cc2)c1F` [Example A8, 1-[4-(2-fluoro-3,6-dimethoxybenzoyl)benzoyl]-4-(pyridine-4-carbonyl)piperazine], in experiment [1], the activity at 0.078 µM was found to be 99.2%, the activity at 0.156 µM was found to be 98.7%, the activity at 0.312 µM amounted to 96.4% and the activity at 0.625 µM turned out to be 99%. Further, in experiment [1], the activity at 1.25 µM is 92.9%, the activity at 2.5 µM stood at 94.4%, the activity at 5 µM was 93.8% and the activity at 10 µM is 93.2%. The activity at 20 µM in experiment [1] is 81.6%. The compound further registered an EC50 with Primary Neurons above 20 µM.

As for `COc1ccc(O)c(C(=O)c2ccc(C(=O)N3CCN(C(=O)c4ccncc4)CC3)cc2)c1F` [Example A9, 3-fluoro-4-methoxy-2-{4-[4-(pyridine-4-carbonyl)piperazine-1-carbonyl]benzoyl}phenol], in experiment [1], the activity at 0.078 µM is 94.5%, the activity at 0.156 µM stood at 91.5%, the activity at 0.312 µM turned out to be 90.7% and the activity at 0.625 µM came to 96.6%. For the same compound, in experiment [1], the activity at 1.25 µM was found to be 88%, the activity at 2.5 µM stood at 98.9%, the activity at 5 µM was determined as 98.3% and the activity at 10 µM amounted to 89.6%. In addition, the activity at 20 µM in experiment [1] was 89.1%. In the experiment with Primary Neurons, the response was half-maximal at 4.92 µM (EC50).

For the compound `O=C(N[C@@H]1c2ccccc2C[C@H]1NC(=O)c1ccncc1)c1ccc(C(=O)c2ccccc2)cc1` [Example A11, N-[(1R,2R)-1-(4-benzoylbenzamido)-2,3-dihydro-1H-inden-2-yl]pyridine-4-carboxamide], in experiment [1], the activity at 0.078 µM amounted to 104%, the activity at 0.156 µM is 102%, the activity at 0.312 µM was determined as 87.4% and the activity at 0.625 µM was 93.8%. For the same compound, in experiment [1], the activity at 1.25 µM worked out at 91.7%, the activity at 2.5 µM worked out at 98.5%, the activity at 5 µM worked out at 94.6% and the activity at 10 µM turned out to be 110%. Further, the activity at 20 µM in experiment [1] turned out to be 110%. In the experiment with Primary Neurons, this compound showed an EC50 of 5.58 µM.

Turning to `COc1ccc(OC)c(C(=O)c2ccc(C(=O)N[C@@H]3c4ccccc4C[C@H]3NC(=O)c3ccncc3)cc2)c1F` [Example A12, N-[(1R,2R)-1-[4-(2-fluoro-3,6-dimethoxybenzoyl)benzamido]-2,3-dihydro-1H-inden-2-yl]pyridine-4-carboxamide], in experiment [1], the activity at 0.078 µM amounted to 96.6%, the activity at 0.156 µM worked out at 90.7%, the activity at 0.312 µM was found to be 91.2% and the activity at 0.625 µM came out at 93.1%. In addition, in experiment [1], the activity at 1.25 µM was found to be 90.6%, the activity at 2.5 µM was 91%, the activity at 5 µM was determined as 106% and the activity at 10 µM was 98.6%. In addition, in experiment [1], the activity at 20 µM worked out at 119%. The compound also returned an EC50 with Primary Neurons above 20 µM.

Source of the values: US11926613B2, “Kinase inhibitors for the treatment of central and peripheral nervous system disorders” (UNIVERSITY OF MIAMI, priority 2017, dated 2024).
